Reference: patent US10208089B2, “Modulation of complement activity” (priority 2014, dated 2019)
Starred links: 1 amine or outer side, 2 acyl side, 3 side chain; linkers in the order of their positions; H or OH if unused. Positions of bridges follow the written chain, without caps; N, C: chain ends. Non-standard residues stand in square brackets, D forms with d. Residues, ends and D or L forms follow the SMILES beside them. Trp(7-aza) = N[C@@H](Cc1c[nH]c2ncccc12)C(=O)O; mXylylene = c1cc(C[*:1])cc(C[*:2])c1; Phg = N[C@H](C(=O)O)c1ccccc1; Tle = CC(C)(C)[C@H](N)C(=O)O; NMeS = CN[C@@H](CO)C(=O)O; Nva = CCC[C@H](N)C(=O)O

Target: C5 (Homo sapiens, UniProt P01031)
Assay: Human hemolysis assay (RBC lysis assay using complete human sera)
Type: cell-based
Set-up: with complete human sera (Complement Technology, Tyler Tex.) and polypeptides; tissue Complement Technology, Tyler Tex; host or cells: complete human serum
[1] = inhibition of lysis of antibody-sensitized sheep erythrocytes, complete human sera

Chain of C5 (P01031 19-1676): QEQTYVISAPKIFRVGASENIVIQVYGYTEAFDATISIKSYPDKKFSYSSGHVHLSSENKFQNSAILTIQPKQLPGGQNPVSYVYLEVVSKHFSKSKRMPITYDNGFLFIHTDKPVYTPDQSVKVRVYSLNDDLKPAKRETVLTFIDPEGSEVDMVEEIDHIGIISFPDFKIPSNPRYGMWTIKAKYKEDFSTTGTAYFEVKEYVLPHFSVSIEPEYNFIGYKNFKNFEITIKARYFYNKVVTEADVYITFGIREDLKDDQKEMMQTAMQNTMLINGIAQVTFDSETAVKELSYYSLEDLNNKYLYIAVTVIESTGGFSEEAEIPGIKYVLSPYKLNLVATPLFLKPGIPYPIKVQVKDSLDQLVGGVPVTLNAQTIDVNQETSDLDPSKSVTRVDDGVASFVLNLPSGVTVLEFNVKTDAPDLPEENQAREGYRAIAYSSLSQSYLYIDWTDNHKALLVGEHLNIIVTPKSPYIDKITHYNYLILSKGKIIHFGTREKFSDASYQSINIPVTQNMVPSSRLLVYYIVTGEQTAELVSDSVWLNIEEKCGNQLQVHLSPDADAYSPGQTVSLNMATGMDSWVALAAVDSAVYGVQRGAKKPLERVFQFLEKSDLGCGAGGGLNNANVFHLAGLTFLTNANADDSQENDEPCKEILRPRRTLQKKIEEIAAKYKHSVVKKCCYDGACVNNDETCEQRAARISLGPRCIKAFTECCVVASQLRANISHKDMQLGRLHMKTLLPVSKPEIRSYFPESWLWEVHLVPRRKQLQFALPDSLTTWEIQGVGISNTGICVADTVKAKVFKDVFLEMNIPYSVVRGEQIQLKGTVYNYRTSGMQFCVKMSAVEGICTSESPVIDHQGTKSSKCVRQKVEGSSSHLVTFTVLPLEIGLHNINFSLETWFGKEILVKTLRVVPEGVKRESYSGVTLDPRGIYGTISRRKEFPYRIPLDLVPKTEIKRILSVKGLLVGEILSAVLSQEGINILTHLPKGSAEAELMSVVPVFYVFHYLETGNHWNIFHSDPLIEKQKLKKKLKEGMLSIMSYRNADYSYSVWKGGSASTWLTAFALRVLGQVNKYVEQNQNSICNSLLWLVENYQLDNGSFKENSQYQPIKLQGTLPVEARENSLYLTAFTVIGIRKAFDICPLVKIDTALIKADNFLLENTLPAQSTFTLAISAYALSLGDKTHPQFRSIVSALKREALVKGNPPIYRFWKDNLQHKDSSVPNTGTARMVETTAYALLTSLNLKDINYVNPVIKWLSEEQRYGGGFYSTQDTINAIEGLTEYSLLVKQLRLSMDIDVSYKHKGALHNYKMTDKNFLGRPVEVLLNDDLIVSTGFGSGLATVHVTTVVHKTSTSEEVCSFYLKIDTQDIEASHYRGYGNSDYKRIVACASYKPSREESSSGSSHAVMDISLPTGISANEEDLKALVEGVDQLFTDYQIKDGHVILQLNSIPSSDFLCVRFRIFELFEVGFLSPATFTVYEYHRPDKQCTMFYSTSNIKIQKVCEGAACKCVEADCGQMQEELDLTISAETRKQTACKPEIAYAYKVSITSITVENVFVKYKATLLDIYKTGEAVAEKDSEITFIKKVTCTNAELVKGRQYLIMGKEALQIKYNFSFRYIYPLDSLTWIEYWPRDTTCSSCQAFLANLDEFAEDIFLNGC

`CCC[C@H](NC(=O)[C@@H](NC(=O)[C@@H]1CCCN1C(=O)[C@H](Cc1ccc(O)cc1)NC(=O)[C@H](CCC(=O)O)NC(=O)[C@@H]1CSCc2cccc(c2)CSC[C@H](NC(=O)[C@H](CCC)NC(C)=O)C(=O)N[C@@H](Cc2ccc(O)cc2)C(=O)N[C@@H](CCC(=O)O)C(=O)N[C@@H](CC(N)=O)C(=O)N[C@@H](C(C)(C)C)C(=O)N[C@@H](Cc2ccc(O)cc2)C(=O)N1)c1ccccc1)C(N)=O` [Compound R3017, [mXylyl(2,8)]Ac-Nvl-C-Y-E-N-Tbg-Y-C-E-Y-P-Phg-Nvl-NH2] (Ac-[Nva]CYEN[Tle]YCEYP[Phg][Nva]-NH2; linker 2-8 via mXylylene) gave an IC50 (7-azatryptophan variant polypeptides of R3002, inhibition of red blood cell lysis) of over 100 µM and an IC50 [1] of over 100 µM.

`CCC[C@H](NC(=O)[C@@H](NC(=O)[C@@H]1CCCN1C(=O)[C@@H]1CSCc2cccc(c2)CSC[C@H](NC(=O)[C@H](CCC)NC(C)=O)C(=O)N[C@@H](Cc2ccc(O)cc2)C(=O)N[C@@H](CCC(=O)O)C(=O)N[C@@H](CC(N)=O)C(=O)N[C@@H](C(C)(C)C)C(=O)N[C@@H](Cc2ccc(O)cc2)C(=O)N[C@@H](Cc2c[nH]c3ncccc23)C(=O)N[C@@H](CCC(=O)O)C(=O)N1)c1ccccc1)C(N)=O` [Compound R3018, [mXylyl(2,10)]Ac-Nvl-C-Y-E-N-Tbg-Y-azaTrp-E-C-P-Phg-Nvl-NH2] (Ac-[Nva]CYEN[Tle]Y[Trp(7-aza)]ECP[Phg][Nva]-NH2; linker 2-10 via mXylylene) showed an IC50 [1] of over 5.73 µM.

`CCC[C@H](NC(C)=O)C(=O)N[C@H]1CSCc2cccc(c2)CSC[C@@H](C(N)=O)NC(=O)[C@H](CCC)NC(=O)[C@H](c2ccccc2)NC(=O)[C@@H]2CCCN2C(=O)[C@H](Cc2ccc(O)cc2)NC(=O)[C@H](CCC(=O)O)NC(=O)[C@H](Cc2c[nH]c3ncccc23)NC(=O)[C@H](Cc2ccc(O)cc2)NC(=O)[C@H](C(C)(C)C)NC(=O)[C@H](CC(N)=O)NC(=O)[C@H](CCC(=O)O)NC(=O)[C@H](Cc2ccc(O)cc2)NC1=O` [Compound R3019, [mXylyl(2,14)]Ac-Nvl-C-Y-E-N-Tbg-Y-azaTrp-E-Y-P-Phg-Nvl-C-NH2] (Ac-[Nva]CYEN[Tle]Y[Trp(7-aza)]EYP[Phg][Nva]C-NH2; linker 2-14 via mXylylene) showed an IC50 [1] of 1.32 µM.

With `CSCC[C@H](N)C(=O)N[C@H]1CSCc2cccc(c2)CSC[C@@H](C(=O)N[C@@H](CCC(=O)O)C(=O)N[C@H](C(=O)N[C@@H](CCCNC(=N)N)C(=O)N[C@@H](Cc2c[nH]c3ccccc23)C(=O)N[C@@H](CCC(=O)O)C(=O)N[C@@H](Cc2ccc(O)cc2)C(N)=O)C(C)C)NC(=O)[C@H](Cc2ccc(O)cc2)NC(=O)[C@H](CCCNC(=N)N)NC(=O)[C@H](CCC(=O)O)NC(=O)[C@H](CO)NC1=O` [Compound R3020, [mXylyl(2,7)]M-C-S-E-R-Y-C-E-V-R-W-E-Y-NH2] (H-MCSERYCEVRWEY-NH2; linker 2-7 via mXylylene) the IC50 [1] was 0.0246 µM.

Molecule `CCC[C@H](NC(=O)[C@@H]1CCCN1C(=O)[C@H](CCC)NC(=O)[C@H](CS)NC(=O)[C@H](Cc1c[nH]cn1)NC(=O)[C@H](CO)N(C)C(=O)[C@H](Cc1ccc(O)cc1)NC(=O)[C@H](CCC(=O)O)NC(=O)[C@H](Cc1c[nH]c2ncccc12)NC(=O)[C@@H](NC(=O)[C@@H](NC(=O)[C@H](CS)NC(=O)[C@H](CCC)NC(C)=O)c1ccccc1)[C@@H](C)O)C(N)=O` [Compound R3022, Ac-Nvl-C-Phg-T-azaTrp-E-Y-(N-Me)S-H-C-Nvl-P-Nvl-NH2] (Ac-[Nva]C[Phg]T[Trp(7-aza)]EY[NMeS]HC[Nva]P[Nva]-NH2) has an IC50 [1] of over 10.2 µM.

In the case of `CCC[C@H](NC(=O)[C@@H](NC(=O)[C@@H]1CCCN1C(=O)[C@H](Cc1ccc(O)cc1)NC(=O)[C@H](CCC(=O)O)NC(=O)[C@H](Cc1c[nH]c2ncccc12)NC(=O)[C@H](Cc1ccc(O)cc1)NC(=O)[C@@H](NC(C)=O)C(C)(C)C)c1ccccc1)C(N)=O` [Compound R3028, Ac-Tbg-Y-azaTrp-E-Y-P-Phg-Nvl-NH2] (Ac-[Tle]Y[Trp(7-aza)]EYP[Phg][Nva]-NH2), the IC50 [1] is reported as over 10 µM.

With `CCC[C@H](NC(=O)[C@@H]1CSCc2cccc(c2)CSC[C@H](NC(=O)[C@H](C)NC(C)=O)C(=O)N[C@@H](c2ccccc2)C(=O)N[C@@H]([C@@H](C)O)C(=O)N[C@@H](Cc2c[nH]c3ncccc23)C(=O)N[C@@H](CCC(=O)O)C(=O)N[C@@H](Cc2ccc(O)cc2)C(=O)N(C)[C@@H](CO)C(=O)N[C@@H](Cc2c[nH]cn2)C(=O)N1)C(N)=O` [Compound R3031, [mXylyl(2,10)]Ac-A-C-Phg-T-azaTrp-E-Y-(N-Me)S-H-C-Nvl-NH2] (Ac-AC[Phg]T[Trp(7-aza)]EY[NMeS]HC[Nva]-NH2; linker 2-10 via mXylylene) the IC50 [1] was 1.09 µM.

With `CCC[C@H](NC(=O)[C@@H]1CSCc2cccc(c2)CSC[C@H](NC(=O)[C@H](CCC)NC(C)=O)C(=O)N[C@@H](C)C(=O)N[C@@H]([C@@H](C)O)C(=O)N[C@@H](Cc2c[nH]c3ncccc23)C(=O)N[C@@H](CCC(=O)O)C(=O)N[C@@H](Cc2ccc(O)cc2)C(=O)N(C)[C@@H](CO)C(=O)N[C@@H](Cc2c[nH]cn2)C(=O)N1)C(N)=O` [Compound R3032, [mXylyl(2,10)]Ac-Nvl-C-A-T-azaTrp-E-Y-(N-Me)S-H-C-Nvl-NH2] (Ac-[Nva]CAT[Trp(7-aza)]EY[NMeS]HC[Nva]-NH2; linker 2-10 via mXylylene) the IC50 [1] was over 10 µM.

`CCC[C@H](NC(=O)[C@@H]1CSCc2cccc(c2)CSC[C@H](NC(=O)[C@H](CCC)NC(C)=O)C(=O)N[C@@H](c2ccccc2)C(=O)N[C@@H](C)C(=O)N[C@@H](Cc2c[nH]c3ncccc23)C(=O)N[C@@H](CCC(=O)O)C(=O)N[C@@H](Cc2ccc(O)cc2)C(=O)N(C)[C@@H](CO)C(=O)N[C@@H](Cc2c[nH]cn2)C(=O)N1)C(N)=O` [Compound R3033, [mXylyl(2,10)]Ac-Nvl-C-Phg-A-azaTrp-E-Y-(N-Me)S-H-C-Nvl-NH2] (Ac-[Nva]C[Phg]A[Trp(7-aza)]EY[NMeS]HC[Nva]-NH2; linker 2-10 via mXylylene) was tested, and the IC50 [1] was 0.131 µM.

For `CCC[C@H](NC(=O)[C@@H]1CSCc2cccc(c2)CSC[C@H](NC(=O)[C@H](CCC)NC(C)=O)C(=O)N[C@@H](c2ccccc2)C(=O)N[C@@H]([C@@H](C)O)C(=O)N[C@@H](C)C(=O)N[C@@H](CCC(=O)O)C(=O)N[C@@H](Cc2ccc(O)cc2)C(=O)N(C)[C@@H](CO)C(=O)N[C@@H](Cc2c[nH]cn2)C(=O)N1)C(N)=O` [Compound R3034, [mXylyl(2,10)]Ac-Nvl-C-Phg-T-A-E-Y-(N-Me)S-H-C-Nvl-NH2] (Ac-[Nva]C[Phg]TAEY[NMeS]HC[Nva]-NH2; linker 2-10 via mXylylene), the IC50 (7-azatryptophan variant polypeptides of R3008, inhibition of red blood cell lysis) was over 50 µM and the IC50 [1] was over 50 µM.

`CCC[C@H](NC(=O)[C@@H]1CSCc2cccc(c2)CSC[C@H](NC(=O)[C@H](CCC)NC(C)=O)C(=O)N[C@@H](c2ccccc2)C(=O)N[C@@H]([C@@H](C)O)C(=O)N[C@@H](Cc2c[nH]c3ncccc23)C(=O)N[C@@H](C)C(=O)N[C@@H](Cc2ccc(O)cc2)C(=O)N(C)[C@@H](CO)C(=O)N[C@@H](Cc2c[nH]cn2)C(=O)N1)C(N)=O` [Compound R3035, [mXylv1(2,10)]Ac-Nvl-C-Phg-T-azaTrp-A-Y-(N-Me)S-H-C-Nvl-NH2] (Ac-[Nva]C[Phg]T[Trp(7-aza)]AY[NMeS]HC[Nva]-NH2; linker 2-10 via mXylylene) was tested, and the IC50 [1] was over 50 µM.
